Data taken from US7163787B2, “Methods for the identification of antiviral compounds” (Crucell Holland B.V., priority 2001, dated 2007).

Assays:
HRV14 or HRV16 = conditions: cited from earlier work
HSV = conditions: A549 cells; cited from earlier work
HSV-1 [1] = test: TCID50 titration of HSV-1 on PER.C6 with acyclovir, CPE score; format: cell-based, Herpes Simplex Virus type 1
Experimental: (§1) FIG. 16. Virustatic activity of acyclovir for Herpes Simplex Virus type 1 and type 2 (HSV-1 and HSV-2) using PER.C6 cells as a substrate for virus replication and TCID50 calculations based on CPE score on day 6 post infection.
(§2) To test the feasibility of PER.C6 for antiviral drug screening, the acyclovir/HSV system was used. A TCID50 titration of both a HSV-1 as well as a HSV-2 stock virus produced on PER.C6 (titer 6000 TCID50/ml) was performed in either the absence or in the presence of different concentrations of acyclovir. PER.C6 cells were seeded in a 96-wells tissue culture plate at a concentration of 1×10^5 cells/well, in normal culture medium, DMEM (Gibco) supplemented with heat inactivated FBS (origin US, Gibco) and 1 ml 4.9 M MgCl2 (Sigma). The day after seeding, cells were pre-incubated with the appropriate acyclovir (20 mg/ml, Genthon) concentration being, 200, 20, 2, 0,2 and 0 μg/ml, diluted in normal culture medium, for 2 hours at 37° C. and 10% CO2. A total of 20 wells were used per concentration. […]
(§3) At day 6 post infection, CPE was scored in each of the wells and TCID50 calculated according to the Karber method (1931), which is well known to persons skilled in the art. In addition, viable cells were scored with the MTS assay. […] 10% CO2, followed by reading the OD490 in an ELISA reader.

HSV-2 [2] = test: Viable cell scoring by MTS assay of HSV-2 infected PER.C6 with acyclovir; format: cell-based, Herpes Simplex Virus type 2; conditions: HSV-2 on PER.C6; day 6 post infection
Experimental: (§4) FIG. 17. Virustatic effect of acyclovir against (A) HSV-1 and (B) HSV-2 using infection of PER.C6 with different 10 fold serial dilutions of virus and viable cell scoring by MTS assay on day 6 post infection.
as §2, §3

HSV-2 [3] = test: TCID50 titration of HSV-2 on PER.C6 with acyclovir, CPE score; format: cell-based, Herpes Simplex Virus type 2
Experimental: as §1, §2, §3

HSV-1 [4] = test: Viable cell scoring by MTS assay of HSV-1 infected PER.C6 with acyclovir; format: cell-based, Herpes Simplex Virus type 1; conditions: HSV-1 on PER.C6; day 6 post infection
Experimental: as §4, §2, §3

SMILES | cytopathic effect in infected cells (HRV14 or HRV16; cells infected with HRV14 or HRV16) | rhinovirus replication in vitro (HRV14 or HRV16; in vitro) | HSV replication (HSV) | TCID50 reduction as compared to the control (HSV-1 [1]; HSV-1 on PER.C6, 20 μg/ml of acyclovir, CPE score day 6 post infection) [fold] | virustatic effect (HSV-1 [1]; HSV-1 propagated on PER.C6 cells) | viable cells scored with MTS assay compared with TCID50 result (HSV-2 [2]) | amount of acyclovir for 1000 fold TCID50 reduction, relative to HSV-1 (HSV-2 [3]; HSV-2 on PER.C6, CPE score day 6 post infection) | virustatic effect (HSV-2 [3]; HSV-2 propagated on PER.C6 cells) | prevention of cell death caused by virus (viable cells, MTS) (HSV-1 [4])
c1ccc2c(c1)oc1ccccc12 [Dibenzofuran] | hinder the cytopathic effect | block rhinovirus replication in vitro |  |  |  |  |  |  | 
Nc1nc2c(ncn2COCCO)c(=O)[nH]1 [acyclovir, 2-amino-1,9-dihydro-9-[(2-hydroethoxy)methyl]-6H-purin-6-one] |  |  | inhibited HSV replication | ~1000 | clear virustatic effect | comparable results were obtained | required a higher amount of acyclovir | clear virustatic effect | more effective at a lower dosage in preventing cell death caused by HSV-1 than by HSV-2
